Measured values as given in US7915423B2, “Solid states of pantoprazole sodium, processes for preparing them and processes for preparing known pantoprazole sodium hydrates” (Teva Pharmaceutical Industries, Ltd., priority 2002, dated 2011).
Values belong to the compound of their own block, whether it stands above or below them.

What was measured:
[1] = Thermal interconversion of solid forms on drying, followed by PXRD; format: physicochemical
Description: The PXRD patterns depicted in the accompanying figures were obtained on a Scintag X-Ray powder diffractometer model X'TRA with a copper tube solid state detector. A round standard aluminum sample holder with round zero background quartz plate was used. Scanning parameters: Range: 2-40°2θ: continuous scan, Rate: 3 deg./min.
The mixture was stirred overnight at ambient temperature, giving the crystals. The crystals were filtered on filter paper.
Pantoprazole sodium Form V was dried at 65° C. under ambient pressure for two hours.
The solution was stirred overnight without precipitation. The solution was allowed to stand overnight in an opened flask with precipitation of the product. The crystals were filtered and allowed to stand at room temperature open to the air for a short period of time but were not otherwise dried.
The pantoprazole sodium Form VI was then dried at 50° C. under a 10 mm Hg vacuum overnight. The resulting powder was analyzed by PXRD and found to be amorphous.

[2] = as above; format: physicochemical; settings: 100° C. under 10 mm vacuum overnight
[3] = Solubility of pantoprazole sodium in alcohols; format: physicochemical
From the text: Accordingly, initial investigation focused on how this solvate could be produced by crystallization from a solution rather than a heterogeneous technique. We discovered that combining free pantoprazole and solid sodium hydroxide in 1-butanol and crystallization of the resulting pantoprazole sodium salt yielded Form V. The presence of minor amounts of water originating from the use of non-anhydrous 1-butanol, a hydrated starting material or water adsorbed on the equipment used for crystallization has no effect on the crystal form obtained. […] Again, conditions depleted of water, yet not rigorously anhydrous were investigated. We discovered that Form X can be obtained by crystallization from a solution formed by combining free pantoprazole with sodium hydroxide in 1-propanol.

[4] = cited from earlier work
[5] = 65° C. under ambient pressure for two hours
[6] = 50° C. under 10 mm Hg vacuum overnight

solid form obtained after drying (PXRD) [1, 5]: pantoprazole sodium Form XIII
solid form obtained after drying (PXRD) ([1]; 65° C. under ambient pressure for two hours, listed as pantoprazole sodium 1-butanol solvate): pantoprazole sodium Form XIII
Structure (SMILES): COc1ccnc(C[S+]([O-])c2nc3ccc(OC(F)F)cc3[nH]2)c1OC (stereo not shown) [Form V, pantoprazole sodium]

solid form obtained after drying (PXRD) [1, 5]: pantoprazole sodium Form XIII
solid form obtained after drying (PXRD) ([1]; 65° C. under ambient pressure for two hours, listed as pantoprazole sodium 2-methylpropanol solvate): pantoprazole sodium Form XIII
Structure (SMILES): COc1ccnc(C[S+]([O-])c2nc3ccc(OC(F)F)cc3[nH]2)c1OC (stereo not shown) [Form XII, pantoprazole sodium]

solid form obtained after drying [2]: amorphous pantoprazole sodium
Structure (SMILES): COc1ccnc(C[S+]([O-])c2nc3ccc(OC(F)F)cc3[nH]2)c1OC (stereo not shown) [Pantoprazole sodium sesquihydrate, pantoprazole sodium]

solubility in 1-butanol ([3]; 1-butanol): appreciably soluble
solubility in 1-propanol ([3]; 1-propanol): high solubility
Structure (SMILES): COc1ccnc(C[S+]([O-])c2nc3ccc(OC(F)F)cc3[nH]2)c1OC (stereo not shown) [Pantoprazole sodium, pantoprazole sodium]

solid form by PXRD as wet sample and after drying ([1]; drying at 50° C.): Form XVIII
Structure (SMILES): COc1ccnc(C[S+]([O-])c2nc3ccc(OC(F)F)cc3[nH]2)c1OC (stereo not shown) [Form XVIII, pantoprazole sodium]

solid form obtained after drying (PXRD) [1, 6]: pantoprazole sodium Form I
Structure (SMILES): COc1ccnc(C[S+]([O-])c2nc3ccc(OC(F)F)cc3[nH]2)c1OC (stereo not shown) [Form IV, pantoprazole sodium]

solid form obtained after drying (PXRD) [1, 6]: amorphous
Structure (SMILES): COc1ccnc(C[S+]([O-])c2nc3ccc(OC(F)F)cc3[nH]2)c1OC (stereo not shown) [Form VI, pantoprazole sodium]

dehydration on drying ([1]; mild conditions such as 50° C. at 10 mm Hg vacuum): without causing significant dehydration
Structure (SMILES): COc1ccnc(C[S+]([O-])c2nc3ccc(OC(F)F)cc3[nH]2)c1OC (stereo not shown) [Form XX, pantoprazole sodium]

solid form obtained after drying ([1]; 50° C. under 10 mm Hg vacuum, time not given): pantoprazole sodium Form I
Structure (SMILES): COc1ccnc(C[S+]([O-])c2nc3ccc(OC(F)F)cc3[nH]2)c1OC (stereo not shown) [Form VIII, pantoprazole sodium]

solid form obtained after drying (PXRD) [1, 6]: pantoprazole sodium Form XV
Structure (SMILES): COc1ccnc(C[S+]([O-])c2nc3ccc(OC(F)F)cc3[nH]2)c1OC (stereo not shown) [Form XIV, pantoprazole sodium]

solid form obtained after further drying ([1]; 65° C. for another two hours under ambient pressure (Form XIII obtained from Form V)): partially amorphous
solid form obtained after drying (PXRD) [1, 5]: amorphous pantoprazole sodium
Structure (SMILES): COc1ccnc(C[S+]([O-])c2nc3ccc(OC(F)F)cc3[nH]2)c1OC (stereo not shown) [Form XIII, pantoprazole sodium]

Structure (SMILES): COc1ccnc(C[S+]([O-])c2nc3ccc(OC(F)F)cc3[nH]2)c1OC (stereo not shown) [monohydrate, pantoprazole sodium]
solubility in acetone [4]: dissolves with difficulty
